The values below come from ChEMBL document CHEMBL5252552, “Defined concatenated α6α1β3γ2 GABAA receptor constructs reveal dual action of pyrazoloquinolinone allosteric modulators” (Bioorg Med Chem, 2019).

The term EC50 denotes the concentration at which the effect is half-maximal.

The target of assay [1] is T1, Gamma-aminobutyric acid receptor subunit alpha-6/beta-3/gamma-2 (Rattus norvegicus) (UniProt P18508+P30191+P63079). The assay is described as follows: Positive allosteric modulation of rat recombinant GABAA alpha6beta3alpha6-gamma2beta3 receptor expressed in Xenopus laevis oocytes assessed as maximal efficacy at -80 mV holding potential at 30 nM in presence of GABA EC1 to 1.5 by two-electrode voltage-clamp assay. It counts as cell-based. The following applies: Oocyte, filed as positive allosteric modulator. (Two-electrode voltage clamp holds a large cell at a set potential and records current.)

Assay [2] addresses T2, Gamma-aminobutyric acid receptor subunit alpha-1/beta-3/gamma-2 (Rattus norvegicus) (UniProt P18508+P62813+P63079). The assay is described as follows: Positive allosteric modulation of rat recombinant GABAA alpha1beta3gamma2 receptor expressed in Xenopus laevis oocytes assessed as maximal efficacy at -80 mV holding potential at 300 nM in presence of GABA EC1 to 1.5 by two-electrode voltage-clamp assay. It counts as cell-based. The following applies: Oocyte.

The target in assay [3] is T3, Gamma-aminobutyric acid receptor subunit alpha-1/alpha-6/beta-3/gamma-2 (Rattus norvegicus) (UniProt P18508+P30191+P62813+P63079). Nature of the assay: Positive allosteric modulation of rat recombinant GABAA alpha6beta3alpha1-gamma2beta3 receptor expressed in Xenopus laevis oocytes assessed as maximal efficacy at -80 mV holding potential at 1 uM in presence of GABA EC1 to 1.5 by two-electrode voltage-clamp assay. Type of assay: cell-based. The settings on record: Oocyte, filed as positive allosteric modulator.

The target in assay [4] is T1, Gamma-aminobutyric acid receptor subunit alpha-6/beta-3/gamma-2 (Rattus norvegicus). Nature of the assay: Positive allosteric modulation of rat recombinant GABAA alpha6beta3gamma2 receptor expressed in Xenopus laevis oocytes assessed as maximal current at -80 mV holding potential under less potent phase in presence of GABA EC1 to 1.5 by two-electrode voltage-clamp assay relative to control. The settings on record: Oocyte, filed as positive allosteric modulator. Type of assay: cell-based.

Assay [5] shares this target. The assay is described as follows: Positive allosteric modulation of rat recombinant GABAA alpha6beta3alpha6-gamma2beta3 receptor expressed in Xenopus laevis oocytes assessed as maximal efficacy at -80 mV holding potential at 100 nM in presence of GABA EC1 to 1.5 by two-electrode voltage-clamp assay. Type of assay: cell-based. The settings on record: Oocyte, filed as positive allosteric modulator.

Assay [6] addresses T2, Gamma-aminobutyric acid receptor subunit alpha-1/beta-3/gamma-2 (Rattus norvegicus). The assay is described as follows: Positive allosteric modulation of rat recombinant GABAA alpha1beta3alpha1-gamma2beta3 receptor expressed in Xenopus laevis oocytes assessed as maximal efficacy at -80 mV holding potential at 3 uM in presence of GABA EC1 to 1.5 by two-electrode voltage-clamp assay. Type of assay: cell-based. The settings on record: Oocyte, filed as positive allosteric modulator.

Assay [7] has as its target Gamma-aminobutyric acid receptor subunit alpha-6/beta-3/gamma-2 (Rattus norvegicus, UniProt P18508+P30191+P63079). The assay is described as follows: Positive allosteric modulation of rat recombinant GABAA alpha6beta3gamma2 receptor expressed in Xenopus laevis oocytes assessed as increase in GABA-induced current amplitude at -80 mV holding potential under more potent phase in presence of GABA EC1 to 1.5 by two-electrode voltage-clamp assay. It counts as cell-based, Oocyte.

Assay [8] deals with T3, Gamma-aminobutyric acid receptor subunit alpha-1/alpha-6/beta-3/gamma-2 (Rattus norvegicus). Nature of the assay: Positive allosteric modulation of rat recombinant GABAA alpha6beta3alpha1-gamma2beta3 receptor expressed in Xenopus laevis oocytes assessed as maximal current at -80 mV holding potential under less potent phase in presence of GABA EC1 to 1.5 by two-electrode voltage-clamp assay relative to control. It counts as cell-based. The following applies: Oocyte, filed as positive allosteric modulator.

The target in assay [9] is T2, Gamma-aminobutyric acid receptor subunit alpha-1/beta-3/gamma-2 (Rattus norvegicus). The assay is described as follows: Positive allosteric modulation of rat recombinant GABAA alpha1beta3gamma2 receptor expressed in Xenopus laevis oocytes assessed as maximal efficacy at -80 mV holding potential at 30 nM in presence of GABA EC1 to 1.5 by two-electrode voltage-clamp assay. It counts as cell-based. The settings on record: Oocyte.

The target in assay [10] is T1, Gamma-aminobutyric acid receptor subunit alpha-6/beta-3/gamma-2 (Rattus norvegicus). The assay is described as follows: Positive allosteric modulation of rat recombinant GABAA alpha6beta3alpha6-gamma2beta3 receptor expressed in Xenopus laevis oocytes assessed as maximal efficacy at -80 mV holding potential at 3 uM in presence of GABA EC1 to 1.5 by two-electrode voltage-clamp assay. Type of assay: cell-based. The following applies: Oocyte, filed as positive allosteric modulator.

In assay [11] the target is T3, Gamma-aminobutyric acid receptor subunit alpha-1/alpha-6/beta-3/gamma-2 (Rattus norvegicus). The assay is described as follows: Positive allosteric modulation of rat recombinant GABAA gamma2beta3alpha1-beta3alpha6 receptor expressed in Xenopus laevis oocytes assessed as maximal efficacy at -80 mV holding potential at 1 nM in presence of GABA EC1 to 1.5 by two-electrode voltage-clamp assay. The following applies: Oocyte. It counts as cell-based.

Assay [12] concerns the target T1, Gamma-aminobutyric acid receptor subunit alpha-6/beta-3/gamma-2 (Rattus norvegicus). The assay is described as follows: Positive allosteric modulation of rat recombinant GABAA alpha6beta3gamma2 receptor expressed in Xenopus laevis oocytes assessed as maximal efficacy at -80 mV holding potential at 3 uM in presence of GABA EC1 to 1.5 by two-electrode voltage-clamp assay. It counts as cell-based. The settings on record: Oocyte, filed as positive allosteric modulator.

Assay [13] deals with T3, Gamma-aminobutyric acid receptor subunit alpha-1/alpha-6/beta-3/gamma-2 (Rattus norvegicus). The assay is described as follows: Positive allosteric modulation of rat recombinant GABAA alpha6beta3alpha1-gamma2beta3 receptor expressed in Xenopus laevis oocytes assessed as maximal efficacy at -80 mV holding potential at 300 nM in presence of GABA EC1 to 1.5 by two-electrode voltage-clamp assay. It counts as cell-based. The following applies: Oocyte, filed as positive allosteric modulator.

Assay [14] has the same target. Nature of the assay: Positive allosteric modulation of rat recombinant GABAA alpha6beta3alpha1-gamma2beta3 receptor expressed in Xenopus laevis oocytes assessed as maximal efficacy at -80 mV holding potential at 10 nM in presence of GABA EC1 to 1.5 by two-electrode voltage-clamp assay. The following applies: Oocyte. Type of assay: cell-based.
For assay [15], the target named is T2, Gamma-aminobutyric acid receptor subunit alpha-1/beta-3/gamma-2 (Rattus norvegicus). Nature of the assay: Positive allosteric modulation of rat recombinant GABAA alpha1beta3alpha1-gamma2beta3 receptor expressed in Xenopus laevis oocytes assessed as maximal efficacy at -80 mV holding potential at 300 nM in presence of GABA EC1 to 1.5 by two-electrode voltage-clamp assay. The following applies: Oocyte. Type of assay: cell-based.

Assay [16] has as its target T3, Gamma-aminobutyric acid receptor subunit alpha-1/alpha-6/beta-3/gamma-2 (Rattus norvegicus). Nature of the assay: Positive allosteric modulation of rat recombinant GABAA gamma2beta3alpha1-beta3alpha6 receptor expressed in Xenopus laevis oocytes assessed as maximal current at -80 mV holding potential under less potent phase in presence of GABA EC1 to 1.5 by two-electrode voltage-clamp assay relative to control. Type of assay: cell-based. The settings on record: Oocyte, filed as positive allosteric modulator.

The target of assay [17] is Gamma-aminobutyric acid receptor subunit alpha-1/alpha-6/beta-3/gamma-2 (Rattus norvegicus, UniProt P18508+P30191+P62813+P63079). The assay is described as follows: Positive allosteric modulation of rat recombinant GABAA gamma2beta3alpha1-beta3alpha6 receptor expressed in Xenopus laevis oocytes assessed as increase in GABA-induced current amplitude at -80 mV holding potential under less potent phase in presence of GABA EC1 to 1.5 by two-electrode voltage-clamp assay. Type of assay: cell-based, Oocyte.
Gamma-aminobutyric acid receptor subunit alpha-1/alpha-6/beta-3/gamma-2, sequence (P18508 whole entry): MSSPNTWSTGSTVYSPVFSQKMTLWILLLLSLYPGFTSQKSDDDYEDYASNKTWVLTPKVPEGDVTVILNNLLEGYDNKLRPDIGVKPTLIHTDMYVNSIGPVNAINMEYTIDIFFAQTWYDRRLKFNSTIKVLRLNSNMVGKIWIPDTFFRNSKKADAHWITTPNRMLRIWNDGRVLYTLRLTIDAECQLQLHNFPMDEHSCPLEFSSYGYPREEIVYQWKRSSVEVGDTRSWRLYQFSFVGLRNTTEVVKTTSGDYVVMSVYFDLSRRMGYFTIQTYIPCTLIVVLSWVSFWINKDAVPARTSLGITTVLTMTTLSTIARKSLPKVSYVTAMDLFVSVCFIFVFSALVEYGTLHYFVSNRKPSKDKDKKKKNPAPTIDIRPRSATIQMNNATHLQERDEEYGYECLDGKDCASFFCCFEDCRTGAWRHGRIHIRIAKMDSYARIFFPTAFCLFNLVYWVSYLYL
Gamma-aminobutyric acid receptor subunit alpha-1/alpha-6/beta-3/gamma-2, sequence (P30191 whole entry): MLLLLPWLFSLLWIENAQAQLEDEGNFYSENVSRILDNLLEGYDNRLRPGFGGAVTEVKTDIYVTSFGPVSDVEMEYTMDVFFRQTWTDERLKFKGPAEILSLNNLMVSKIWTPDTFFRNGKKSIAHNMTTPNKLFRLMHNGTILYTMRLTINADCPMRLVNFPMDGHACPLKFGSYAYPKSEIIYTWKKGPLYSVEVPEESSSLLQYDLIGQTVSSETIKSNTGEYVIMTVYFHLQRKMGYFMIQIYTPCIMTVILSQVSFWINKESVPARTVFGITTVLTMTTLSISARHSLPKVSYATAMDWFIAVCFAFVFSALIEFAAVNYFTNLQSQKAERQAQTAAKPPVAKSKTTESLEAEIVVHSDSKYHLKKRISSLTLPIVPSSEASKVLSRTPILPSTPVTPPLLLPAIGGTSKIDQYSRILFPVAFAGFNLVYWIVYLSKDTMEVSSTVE
Gamma-aminobutyric acid receptor subunit alpha-1/alpha-6/beta-3/gamma-2, sequence (P62813 whole entry): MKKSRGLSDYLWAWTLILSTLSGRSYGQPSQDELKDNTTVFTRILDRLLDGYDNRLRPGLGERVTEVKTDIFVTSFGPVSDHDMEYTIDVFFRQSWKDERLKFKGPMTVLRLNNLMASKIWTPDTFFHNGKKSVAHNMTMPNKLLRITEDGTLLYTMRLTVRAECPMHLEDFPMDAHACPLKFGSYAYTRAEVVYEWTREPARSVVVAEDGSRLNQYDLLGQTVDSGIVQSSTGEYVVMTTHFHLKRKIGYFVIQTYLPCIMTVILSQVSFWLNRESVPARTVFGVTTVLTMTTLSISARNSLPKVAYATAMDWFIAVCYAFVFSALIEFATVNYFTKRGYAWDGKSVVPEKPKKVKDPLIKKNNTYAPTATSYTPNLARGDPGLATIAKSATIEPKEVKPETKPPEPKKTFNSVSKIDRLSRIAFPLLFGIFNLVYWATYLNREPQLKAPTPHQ
Gamma-aminobutyric acid receptor subunit alpha-1/alpha-6/beta-3/gamma-2, sequence (P63079 whole entry): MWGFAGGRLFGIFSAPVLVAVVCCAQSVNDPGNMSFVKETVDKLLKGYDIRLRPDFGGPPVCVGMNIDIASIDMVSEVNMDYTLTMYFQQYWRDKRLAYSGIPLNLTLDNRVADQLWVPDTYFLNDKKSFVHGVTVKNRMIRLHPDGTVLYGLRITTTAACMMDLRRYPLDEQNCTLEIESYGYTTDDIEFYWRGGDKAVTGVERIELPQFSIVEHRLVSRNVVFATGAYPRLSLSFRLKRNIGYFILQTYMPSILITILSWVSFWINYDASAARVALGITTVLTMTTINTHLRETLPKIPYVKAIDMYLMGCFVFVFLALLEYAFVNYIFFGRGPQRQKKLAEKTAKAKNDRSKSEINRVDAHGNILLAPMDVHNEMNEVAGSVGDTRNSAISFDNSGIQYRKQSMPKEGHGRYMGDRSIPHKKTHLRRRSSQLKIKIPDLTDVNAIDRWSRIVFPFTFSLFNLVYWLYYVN

Assay [18] has as its target T3, Gamma-aminobutyric acid receptor subunit alpha-1/alpha-6/beta-3/gamma-2 (Rattus norvegicus). The assay is described as follows: Positive allosteric modulation of rat recombinant GABAA gamma2beta3alpha1-beta3alpha6 receptor expressed in Xenopus laevis oocytes assessed as maximal efficacy at -80 mV holding potential at 30 nM in presence of GABA EC1 to 1.5 by two-electrode voltage-clamp assay. Type of assay: cell-based. The settings on record: Oocyte.

In assay [19] the target is T1, Gamma-aminobutyric acid receptor subunit alpha-6/beta-3/gamma-2 (Rattus norvegicus). The assay is described as follows: Positive allosteric modulation of rat recombinant GABAA alpha6beta3alpha6-gamma2beta3 receptor expressed in Xenopus laevis oocytes assessed as maximal current under less potent phase in presence of GABA EC1 to 1.5 by two-electrode voltage-clamp assay relative to control. Type of assay: cell-based. The settings on record: Oocyte, filed as positive allosteric modulator.

For assay [20] the target is unchanged. The assay is described as follows: Positive allosteric modulation of rat recombinant GABAA alpha6beta3alpha6-gamma2beta3 receptor expressed in Xenopus laevis oocytes assessed as maximal efficacy at -80 mV holding potential at 1 uM in presence of GABA EC1 to 1.5 by two-electrode voltage-clamp assay. It counts as cell-based. The following applies: Oocyte, filed as positive allosteric modulator.

The target in assay [21] is T3, Gamma-aminobutyric acid receptor subunit alpha-1/alpha-6/beta-3/gamma-2 (Rattus norvegicus). Nature of the assay: Positive allosteric modulation of rat recombinant GABAA gamma2beta3alpha1-beta3alpha6 receptor expressed in Xenopus laevis oocytes assessed as maximal efficacy at -80 mV holding potential at 10 nM in presence of GABA EC1 to 1.5 by two-electrode voltage-clamp assay. Type of assay: cell-based. The settings on record: Oocyte.

Assay [22] deals with T2, Gamma-aminobutyric acid receptor subunit alpha-1/beta-3/gamma-2 (Rattus norvegicus). Nature of the assay: Positive allosteric modulation of rat recombinant GABAA alpha1beta3alpha1-gamma2beta3 receptor expressed in Xenopus laevis oocytes assessed as maximal efficacy at -80 mV holding potential at 10 nM in presence of GABA EC1 to 1.5 by two-electrode voltage-clamp assay. The settings on record: Oocyte. It counts as cell-based.

Gamma-aminobutyric acid receptor subunit alpha-6/beta-3/gamma-2, sequence (P18508 whole entry): as the sequence (P18508 whole entry) above
Gamma-aminobutyric acid receptor subunit alpha-6/beta-3/gamma-2, sequence (P30191 whole entry): as the sequence (P30191 whole entry) above
Gamma-aminobutyric acid receptor subunit alpha-6/beta-3/gamma-2, sequence (P63079 whole entry): as the sequence (P63079 whole entry) above

For `COc1ccc(-n2nc3c4ccc(Br)cc4[nH]cc-3c2=O)cc1`, the Efficacy worked out at 65% in assay [1]; 11% in [2]; 144% in assay [3]; 101% in [5]; 95% in [6]; 2% in assay [9]. Besides, the Efficacy in assay [10] worked out at 320%; in assay [11], 3%; in assay [12], 377%; in assay [13] it was 60%; in assay [14], 2%; in [15], 17%. Besides, the Efficacy in assay [18] stood at 31%; in assay [20], 196%; in assay [21], 23%; in [22], 1%. Also, the %max in assay [4] was 580%; in [8], 1060%; in assay [16], 230%; in assay [19] it was 657%. Besides, the EC50 in assay [7] was found to be 0.001 µM; in assay [17], 36 µM.
